Data taken from the supplement of paper PMC10307832.

Columns and labels:
Assay in all cases: relative viability (nuclei count vs DMSO), 5 days (fraction); higher = more cells survive
Carfilzomib + Tozasertib = compound: CC(C)C[C@H](NC(=O)[C@H](CCc1ccccc1)NC(=O)CN1CCOCC1)C(=O)N[C@@H](Cc1ccccc1)C(=O)N[C@@H](CC(C)C)C(=O)[C@@]1(C)CO1 [Carfilzomib] + Cc1cc(Nc2cc(N3CCN(C)CC3)nc(Sc3ccc(NC(=O)C4CC4)cc3)n2)n[nH]1 [Tozasertib] (partner 0.1 µM)
Outline: (§1)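 Relative viability equals treated-well nuclei counts divided by vehicle-well nuclei counts. Counts came from 4× images of lung cancer cell lines grown in 1536-well plates for 5 days after pin-tool dosing on the day after seeding. Dosing used one drug alone or a fixed anchor-drug dose plus five library-drug doses (not always all listed) in √10 steps, and values are medians of duplicate plates.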

Olaparib + Phenformin = compound: O=C(c1cc(Cc2n[nH]c(=O)c3ccccc23)ccc1F)N1CCN(C(=O)C2CC2)CC1 [Olaparib] + N=C(N)NC(=N)NCCc1ccccc1 [Phenformin] (partner 250 µM)
Outline: as §1

Carfilzomib + Olaparib = compound: CC(C)C[C@H](NC(=O)[C@H](CCc1ccccc1)NC(=O)CN1CCOCC1)C(=O)N[C@@H](Cc1ccccc1)C(=O)N[C@@H](CC(C)C)C(=O)[C@@]1(C)CO1 [Carfilzomib] + O=C(c1cc(Cc2n[nH]c(=O)c3ccccc23)ccc1F)N1CCN(C(=O)C2CC2)CC1 [Olaparib] (partner 8 µM)
Outline: as §1

Olaparib + Dasatinib = compound: O=C(c1cc(Cc2n[nH]c(=O)c3ccccc23)ccc1F)N1CCN(C(=O)C2CC2)CC1 [Olaparib] + Cc1nc(Nc2ncc(C(=O)Nc3c(C)cccc3Cl)s2)cc(N2CCN(CCO)CC2)n1 [Dasatinib] (partner 0.075 µM)
Outline: as §1

Cell Line	relative viability (Carfilzomib + Tozasertib; first compound 0.001 µM)	relative viability (Carfilzomib + Tozasertib; first compound 0.003162 µM)	relative viability (Carfilzomib + Tozasertib; first compound 0.01 µM)	relative viability (Carfilzomib + Tozasertib; first compound 0.03162 µM)	relative viability (Carfilzomib + Tozasertib; first compound 0.1 µM)	relative viability (Olaparib + Phenformin; first compound 0.08 µM)	relative viability (Olaparib + Phenformin; first compound 0.253 µM)	relative viability (Olaparib + Phenformin; first compound 2.53 µM)	relative viability (Olaparib + Phenformin; first compound 8 µM)	relative viability (Carfilzomib + Olaparib; first compound 0.001 µM)	relative viability (Carfilzomib + Olaparib; first compound 0.003162 µM)	relative viability (Carfilzomib + Olaparib; first compound 0.01 µM)	relative viability (Carfilzomib + Olaparib; first compound 0.03162 µM)	relative viability (Carfilzomib + Olaparib; first compound 0.1 µM)	relative viability (Olaparib + Dasatinib; first compound 0.08 µM)	relative viability (Olaparib + Dasatinib; first compound 0.253 µM)	relative viability (Olaparib + Dasatinib; first compound 2.53 µM)	relative viability (Olaparib + Dasatinib; first compound 8 µM)
COR-L23	0.216	0.319	0.216	0.0505	0.0802	0.492	0.383	0.408	0.294	0.392	0.435	0.36	0.0646	0.0712	0.539	0.437	0.314	0.23
LK-2	0.181	0.172	0.159	0.179	0.196	0.661	0.381	0.77	0.317	0.646	0.661	0.86	0.149	0.149	0.27	0.329	0.271	0.225
NCI-H358	0.0998	0.0949	0.127	0.057	0.0759	0.396	0.325	0.351	0.327	0.639	0.692	0.583	0.0792	0.0776	0.152	0.181	0.167	0.146
ABC-1	0.196	0.193	0.196	0.212	0.211	0.239	0.234	0.243	0.276	0.768	0.846	0.348	0.324	0.26	0.639	0.609	0.586	0.676
NCI-H520	0.515	0.492	0.371	0.227	0.259	0.645	0.624	0.495	0.385	0.307	0.297	0.203	0.161	0.15	0.176	0.178	0.189	0.153
ChaGo-K-1	0.207	0.236	0.224	0.225	0.157	0.624	0.441	0.475	0.42	0.447	0.409	0.392	0.172	0.142	0.576	0.577	0.567	0.445
NCI-H838	0.273	0.276	0.298	0.31	0.116	0.569	0.589	0.641	0.589	0.79	0.799	0.785	0.126	0.109	0.303	0.259	0.272	0.256
NCI-H2126	0.904	0.926	0.936	0.777	0.408	0.615	0.549	0.506	0.588	0.897	1.01	0.957	0.746	0.464	0.728	0.634	0.558	0.606
HCC-366	0.0847	0.132	0.185	0.106	0.0351	0.768	0.583	0.489	0.413	0.364	0.39	0.362	0.311	0.0358	0.484	0.503	0.498	0.253
